From patent US20110293643A1, “COMPOUNDS AND METHODS FOR INHIBITING MMP2 AND MMP9” (priority 2009, published 2011)

Experiments:
[1] = system: T cells; experiment: cell viability after 1,10-phenanthroline treatment; assay type: cell-based, mouse; conditions: high phenanthroline concentrations
[2] = system: CD4+ T cells; experiment: anti-CD3 induced T cell proliferation (3H thymidine incorporation), CD4+ T cells; assay type: cell-based, mouse
Experimental: (§1) The non-specific MMP inhibitor, 1,10-phenanthroline (Sigma, St. Louis, Mo.) was reconstituted to 1 M solution in dimethyl sulfoxide (DMSO) and diluted to 0.001-0.1 μM in complete RPMI (cRPMI), composed of RPMI, […] L-glutamine, 100 U penicillin streptomycin (Gibco, Carlsbad, Calif.), 10% FCS (Hyclone, Logan, Utah), and 5×10^−5 M 2-mercaptoethanol (Sigma, St. Louis, Mo.).
(§2) CD4^+ or CD8^+ T cells were isolated from wild-type Balb/c or C57BL/6 mice (1×10^6/ml) and incubated with the indicated concentrations of MMPIs or vehicle control for 6 hours. The treated cells were then washed three times in RPMI and cultured (1×10^5/well) in a 96 well plate in 200 μl of cRPMI in the presence of anti-CD3 antibody (0.5-1 μg/ml, BD Biosciences, San Jose, Calif.) at 37° C. for 72 hours and harvested as previously reported (Sumpter et al., 2008). This generalized protocol was used to measure T cell proliferation of CD4^+ and CD8^+ T cells following the various isolation methods and treatment conditions indicated. In MMP deficient parallel studies, MMP2−/−, MMP9−/−, MMP2/9−/− mice and littermate controls were cultured in the presence of anti-CD3 antibody for 72 h. […] The cells were washed three times in RPMI and added at varying ratios (treated: untreated) in co-culture with untreated CD4^+25− T cells in the presence of γ-irradiated antigen presenting cells in 200 μl of cRPMI at 37° C. for 72 hours and harvested as previously reported (Sumpter et al., 2008).

[3] = system: rat; conditions: rat lung transplantation; cited from earlier work
[4] = system: Wistar-Kyoto rat; conditions: rat ischemia reperfusion injury, Iwata et al. 2008; cited from earlier work
[5] = system: Foxp3; experiment: Foxp3 transcript expression by quantitative RT PCR in CD4+ T cells; assay type: cell-based, mouse; conditions: 10 μM, anti-CD3, CD4+ T cells (FIG. 7B)
Experimental: (§3) Purified CD4^+ T cells were incubated with the indicated concentrations of SB3-CT for 6 hours and then washed three times with RPMI 1640. Drug or vehicle-treated T cells were cultured (1×10^6/ml) with anti-CD3 antibody (0.5 μg/ml) in cRPMI for 1-12 hours. Cells were collected and total RNA was isolated using an RNeasy RNA extraction kit (Qiagen, Inc., Valencia, Calif.) and mRNA expression levels were detected with PerfeCTa™ SYBR Green FastMix, Low ROX (Quanta Biosciences, Gaithersburg, Md.) on a Applied Biosystems 7500 according to the manufacturer's instructions. Each sample was normalized to murine β-actin. Primer sequences were designed and optimized using routine methodologies to specifically amplify each cytokine based on publicly available sequences.

[6] = biological target: T1, MMP9 (Mus musculus, UniProt P41245); experiment: MMP9 protein expression by gelatin zymography in CD8+ T cells; assay type: cell-based; conditions: 10 μM
T1 construct: Cell lysates and conditioned media supernatant were collected, concentrated to 4× and centrifuged; endogenous in cells; host or cells: primary splenic CD8+ T cells from wild-type C57BL/6 mice
Experimental: Cell lysates and conditioned media supernatant were collected, concentrated to 4× and centrifuged to remove any cell debris, and stored at −80° C. prior to assay. Samples were then subjected to zymography as reported previously (Yoshida et al., 2007).

[7] = system: CD4+25− T cells; experiment: T cell suppressor assay with SB-3CT-treated CD4+25− T cells; assay type: cell-based, mouse
Experimental: as §2

[8] = system: CC10-OVA mice; experiment: antigen-specific CD8+ T cell mediated lung injury, adoptive transfer of treated OT-I cells into CC10-OVA mice; assay type: in vivo, mouse
Experimental: Lymph node and spleen were isolated from Thy1.1^+ OT-I transgenic mice and splenic CD8^+ T cells were isolated as stated above. […] 5×10^7 γ-irradiated wild-type splenocytes were cultured in 30 ml of 10% DMEM supplemented with 0.7 μg/ml of OVA peptide ([…]) for 5 min, followed by the addition of OT-1 Thy1.1^+ CD8^+ T cells (5×10^6), anti-CD28 antibody (2 μg/ml), IL-2 (132.02 U/ml) and IL-12 (10 ng/ml). On day 3, the cells were split and supplemented with more IL-2 (25 U/ml) in a final volume of 30 ml. On day 5, cells were harvested and prepared for adoptive transfer into CC10-OVA mice. Cells were resuspended in PBS, and 7.5×10^5 cells were intratracheally instilled into the lungs of CC10-OVA mice.
The lung was finely minced on ice, followed by a 60-90 minute digestion at 37° C. with collagenase/dispase (0.2 mg/ml of each) in RPMI medium with 5% fetal calf serum (FCS), in the presence of 25 μg/ml DNase. Cells were passed through a 70 μm cell strainer, washed, and lung lymphocytes were isolated by density centrifugation. Cells were resuspended in FACS buffer (10% BSA in PBS) and analyzed immediately on a FACScan flow cytometer (Beckton Dickinson). FCS Express (DeNovo Software, Los Angeles, Calif.) was used for further analysis.
BAL was collected from the lungs of wild-types and CC10 mice following adoptive transfer of vehicle and SB-3CT-treated OT-1 Tg T cells, by washing the mouse lung with 1.0 ml of sterile 1×PBS. Collected fluid was then centrifuged for 10 minutes at 2000 rpm. Cell pellets were resuspended in 200 μl of sterile 1×PBS. Cells were then stained with anti-GR1 antibody and analyzed immediately on a FACScan flow cytometer (Beckton Dickinson). FCS Express (DeNovo Software, Los Angeles, Calif.) was used for further analysis.
Lungs were perfused, inflated and fixed with neutral buffered formalin. The sections were then embedded in paraffin, sectioned, and stained with hematoxylin and eosin. Images were acquired at 20× using an Olympus microscope and DP12 digital camera (Olympus, Center Valley, Pa.).

[9] = system: NFATc1; experiment: NFATc1 transcript expression by quantitative RT PCR in CD4+ T cells; assay type: cell-based, mouse; conditions: 5-20 μM, anti-CD3, vs vehicle (FIG. 5C)
Experimental: as §3

[10] = system: CD4+25+ T cells (Tregs); experiment: T cell suppressor assay with SB-3CT-treated CD4+25+ T cells (Tregs); assay type: cell-based, mouse; conditions: 10 μM treated CD4+25+ T cells, varying ratios (FIG. 7E)
Experimental: as §2

[11] = system: OT-I transgenic CD8+ T cells; experiment: antigen-specific proliferation of OT-I transgenic CD8+ T cells with OVA-pulsed APCs; assay type: cell-based, mouse; conditions: 5-20 μM, SIINFEKL-pulsed APCs, 72 hours (FIG. 8A)
[12] = system: CD8+ T cells; experiment: anti-CD3 induced T cell proliferation (3H thymidine incorporation), CD8+ T cells; assay type: cell-based, mouse
Experimental: as §1
CD4^+ or CD8^+ T cells were isolated from wild-type Balb/c or C57BL/6 mice (1×10^6/ml) and incubated with the indicated concentrations of MMPIs or vehicle control for 6 hours. The treated cells were then washed three times in RPMI and cultured (1×10^5/well) in a 96 well plate in 200 μl of cRPMI in the presence of anti-CD3 antibody (0.5-1 μg/ml, BD Biosciences, San Jose, Calif.) at 37° C. for 72 hours and harvested as previously reported (Sumpter et al., 2008). This generalized protocol was used to measure T cell proliferation of CD4^+ and CD8^+ T cells following the various isolation methods and treatment conditions indicated. In MMP deficient parallel studies, MMP2−/−, MMP9−/−, MMP2/9−/− mice and littermate controls were cultured in the presence of anti-CD3 antibody for 72 h. […]

[13] = system: IL-2; experiment: IL-2 transcript expression by quantitative RT PCR; assay type: cell-based, mouse; conditions: 10 μM, various time points, anti-CD3, CD4+ T cells (FIG. 6C, D)
Experimental: as §3

[14] = biological target: MMP9 (Homo sapiens, UniProt P14780); conditions: Brown et al., 2000, Toth et al., Forbes et al., 2009; cited from earlier work
[15] = system: IL-2; experiment: IL-2 protein expression by cytometric bead array; assay type: cell-based, mouse; conditions: 10 μM, various time points, anti-CD3, CD4+ T cells (FIG. 6C, D)
Experimental: Purified MMP9 deficient or SB-3CT-treated (10 μM) CD4^+ T cells were incubated for 6 hours and then washed three times with RPMI 1640. MMP9 deficient or SB-3CT-treated T cells were cultured (1×10^6/ml) with anti-CD3 antibody (0.5 μg/ml) in cRPMI for 1-12 hours. Supernatants were collected and cytokine protein levels were measured using the Mouse Inflammatory Cytokine Bead Array Kit (BD Biosciences, San Jose, Calif.) according to the manufacturer's instructions.

[16] = system: CD8+ T cells; experiment: anti-CD3 induced intracellular calcium flux (Fluo-4 NW); assay type: cell-based, mouse; conditions: 10 μM
Experimental: Calcium flux was measured in CD4^+ and CD8^+ wild-type or MMP9 deficient or SB-3CT-treated (10 μM) T cells using the Fluo-4 NW Calcium Assay kit (Molecular Probes, Carlsbad, Calif.) in accord with the manufacturer's protocol. Cells were then stimulated with anti-CD3 antibody (10 μg/ml) and read in real time on a Molecular Devices FlexStation I (Sunnyvale, Calif.) for 300 seconds.

[17] = system: CD25; experiment: CD25 transcript expression by quantitative RT PCR in CD4+ T cells; assay type: cell-based, mouse; conditions: 5-20 μM, anti-CD3, vs vehicle (FIG. 5D)
Experimental: as §3

[18] = system: T cells; experiment: cell viability by trypan blue exclusion and annexin V staining after SB-3CT; assay type: cell-based, mouse; conditions: following treatment with SB-3CT
From the text: The data described in the Examples herein thus far raise the possibility that SB-3CT-induced cytotoxicity or anergy could account for the observed effects on proliferation.

Chain of MMP9 (Homo sapiens, UniProt P14780) (P14780 94-707): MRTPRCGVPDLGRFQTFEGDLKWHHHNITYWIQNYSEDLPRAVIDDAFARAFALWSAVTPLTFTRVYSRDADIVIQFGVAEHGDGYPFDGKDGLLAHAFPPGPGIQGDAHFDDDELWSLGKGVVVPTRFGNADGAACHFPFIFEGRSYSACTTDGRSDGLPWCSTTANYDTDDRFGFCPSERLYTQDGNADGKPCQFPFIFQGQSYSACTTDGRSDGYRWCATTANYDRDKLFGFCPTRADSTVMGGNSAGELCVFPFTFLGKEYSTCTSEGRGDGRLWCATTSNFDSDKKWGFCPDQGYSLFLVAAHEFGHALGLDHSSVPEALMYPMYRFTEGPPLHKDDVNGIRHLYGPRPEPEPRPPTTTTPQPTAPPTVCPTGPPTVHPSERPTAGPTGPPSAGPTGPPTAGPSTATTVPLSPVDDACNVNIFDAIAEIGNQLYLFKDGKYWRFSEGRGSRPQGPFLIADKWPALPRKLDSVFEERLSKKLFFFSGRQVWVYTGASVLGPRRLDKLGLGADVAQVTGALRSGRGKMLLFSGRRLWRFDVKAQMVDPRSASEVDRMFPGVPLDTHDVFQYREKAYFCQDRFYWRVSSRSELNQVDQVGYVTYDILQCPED
T1 sequence (P41245 108-730): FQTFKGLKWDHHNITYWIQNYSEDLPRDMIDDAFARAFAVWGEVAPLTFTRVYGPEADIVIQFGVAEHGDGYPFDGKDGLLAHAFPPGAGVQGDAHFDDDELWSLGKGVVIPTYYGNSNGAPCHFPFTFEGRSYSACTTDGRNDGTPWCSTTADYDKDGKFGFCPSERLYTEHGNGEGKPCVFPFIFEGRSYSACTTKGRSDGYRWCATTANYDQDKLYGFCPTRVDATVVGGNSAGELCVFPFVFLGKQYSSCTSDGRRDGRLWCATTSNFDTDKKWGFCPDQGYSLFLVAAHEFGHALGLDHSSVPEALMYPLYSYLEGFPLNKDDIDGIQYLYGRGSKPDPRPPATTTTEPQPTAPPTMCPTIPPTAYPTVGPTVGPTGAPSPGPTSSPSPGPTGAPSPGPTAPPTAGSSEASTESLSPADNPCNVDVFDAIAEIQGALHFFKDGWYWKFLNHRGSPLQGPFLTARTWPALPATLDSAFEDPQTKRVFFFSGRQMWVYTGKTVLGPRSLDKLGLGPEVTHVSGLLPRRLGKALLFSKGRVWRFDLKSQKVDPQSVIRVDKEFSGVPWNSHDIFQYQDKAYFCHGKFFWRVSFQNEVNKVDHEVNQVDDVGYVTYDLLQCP

In the case of `c1cnc2c(c1)ccc1cccnc12` [1,10-phenanthroline], the “cell viability after treatment” value [1] is reported as “cells were viable after treatment”, the T cell proliferation ([2]; 0.001 μM, 6 hours, then soluble anti-CD3 antibody 72 hours (FIG. 2A)) is reported as “proliferative response similar to untreated anti-CD3 antibody stimulated cells” and the T cell proliferation ([2]; higher doses (up to 0.1 μM), 6 hours, then anti-CD3 72 hours, p<0.001 (FIG. 2A)) is reported as “significantly abrogated the proliferative response”.
For `NC(=O)C1=C(O)C[C@@H]2C[C@@H]3Cc4cccc(O)c4C(=O)C3=C(O)[C@]2(O)C1=O` [COL-3], the “intragraft B cell hyperplasia” value [3] is listed as “induce intragraft B cell hyperplasia”, the “antigenic collagen (V) in bronchoalveolar lavage” value [4] is listed as “lower levels” and the inflammation factors [4] is listed as “reduced inflammation factors”. For the same molecule, the T cell proliferation ([2]; 1 μM, 6 hours, then anti-CD3 72 hours (FIG. 2B)) was “proliferative response similar to the untreated control” and the T cell proliferation ([2]; higher doses (up to 100 μM), p<0.001 (FIG. 2B)) was “dose-dependent decrease in T cell proliferation”.
With `O=S(=O)(CC1CS1)c1ccc(Oc2ccccc2)cc1` (stereo not drawn) [SB-3CT] the foxp3 transcripts [5] was “increased”, the MMP9 protein expression [6] was “decreased” and the inhibition at 10 µM ([7]; Mus musculus, T-cell, 10 μM treated CD4+25− cells, each ratio with untreated CD4+25− T cells, 72 hours (FIG. 7D), read-out: inhibition of T cell proliferation in co-culture) was 50%. The “induction of regulatory T cell function” value ([7]; increasing ratio of SB-3CT-treated cells (FIG. 7D)) was “does not induce regulatory T cell function”, the “lung histology, mononuclear cellular infiltration” value ([8]; H&E lung sections after adoptive transfer of treated OT-1 cells) was “mononuclear cellular infiltration was minimal” and the “quantity of total BAL cells” value ([8]; seven days after adoptive transfer of 10 μM treated OT-I cells, vs vehicle (FIG. 8B)) was “no differences”. For the same molecule, the “quantity of neutrophils (Gr-1+) in BAL” value ([8]; seven days after adoptive transfer, vs vehicle, p<0.01 (FIG. 8C)) was “decreased significantly”, the “CD8+ Thy1.1+ (donor) cells in lung parenchyma” value ([8]; vs vehicle, p<0.01 (FIG. 9A)) was “significantly fewer” and the “CD25 expression on CD8+ Thy1.1+ T cells in lung” value ([8]; vs vehicle, p<0.01 (FIG. 9B)) was “fewer of these cells expressed the activation marker CD25”. The NFATc1 transcript expression [9] was “abrogated NFATc1 and CD25 transcript expression in a dose-dependent manner”, the “suppressive function of treated Tregs” value [10] was “retained their suppressive function” and the antigen-specific proliferation [11] was “completely abrogated the proliferative response”. For the same molecule, the T cell proliferation ([12]; 5-25 μM, anti-CD3 72 h, vs vehicle-treated cells (FIG. 2D)) was “dose-dependent decrease in proliferation”, the “T cell proliferation with exogenous IL-2” value ([12]; anti-CD3 plus exogenous murine IL-2, 72 h (FIG. 2F)) was “partial recovery of the proliferative response” and the IL-2 transcript expression [13] was “increased over time”. The “mode of MMP9 inhibition” value [14] was “tight-binding inhibition”, the T cell proliferation ([2]; 5-25 μM, anti-CD3 72 h, vs vehicle-treated cells (FIG. 2C)) was “dose-dependent decrease in proliferation” and the “T cell proliferation with exogenous IL-2” value ([2]; anti-CD3 plus exogenous murine IL-2, 72 h (FIG. 2E)) was “partial recovery of the proliferative response”. For the same molecule, the IL-2 protein expression [15] was “down regulated”, the “calcium influx in calcium containing media” value ([16]; calcium containing media, anti-CD3 (FIG. 4D)) was “dramatic influx of exogenous calcium” and the “intracellular calcium flux (release from the ER)” value ([16]; calcium-free media, anti-CD3 10 μg/ml (FIG. 4C)) was “increased intracellular calcium flux”. For the same molecule, the CD25 transcript expression [17] was “abrogated NFATc1 and CD25 transcript expression in a dose-dependent manner” and the cell viability [18] was “greater than 90%”.
For “TIMP-1: tissue-inhibitor of metalloproteinases”, the “delayed type hypersensitivity responses to donor antigens and type V collagen” value [3] is given as “differential effects” and the rejection pathology [3] is given as “neither affected the onset of rejection pathology”.
